# Reference: patent publication US20190274975A1, “NANOPARTICLES FOR STIMULATING ELASTOGENESIS” (The Cleveland Clinic Foundation, priority 2013, published 2019)
# How the values were obtained:
# [1] = system: aneurysmal RASMC cultures; experiment: Exogenous DOX on aneurysmal RASMC cultures (previous studies by the inventors); assay type: cell-based, rat
# [2] = equivalent to standard oral doses; mice and human patients; Ding et al. 2005; cited from earlier work
smiles,measurement,setting,value
"C[C@H]1c2cccc(O)c2C(=O)C2=C(O)[C@]3(O)C(=O)C(C(N)=O)=C(O)[C@@H](N(C)C)[C@@H]3[C@@H](O)[C@@H]21 [DOX, doxycycline]",exogenously delivered dose observed to inhibit proliferation and elastic matrix synthesis by EaRASMCs,[1]; observed by the inventors,5.0 µg/mL
same,exogenous DOX dosage that limited the viability of aneurysmal RASMC cultures,[1]; previous studies by the inventors,5.0 µg/mL
same,DOX concentration measured within AAA tissues,[2],~50 ng/mL
